Laboratory results: article PMC8931498 (Frontiers in Pharmacology, 2022)
Like-named read-outs stand apart in the source and are kept apart here.

Columns and labels:
[1] = Tissue accumulation 2 h after oral ibogaine in wild-type and Oatp1a/1b-deficient mouse strains; format: in vivo, mice; details: for fold reduction in liver accumulation: tissue concentration relative to plasma AUC0-2h, oral 10 mg/kg ibogaine
Experimental: (§1) In each experiment, six to seven mice were used per strain. […] To reduce variation in absorption upon oral administration, mice were fasted for 2–3 h before dosing. […] At either 2 or 8 h after dosing, mice were deeply anesthetized with isoflurane (3%), followed by cardiac puncture to collect blood (at least 600 μL) in Eppendorf tubes using heparin as an anticoagulant. The mice were then sacrificed by cervical dislocation, and tissues including the brain, liver (without gallbladder), kidneys, spleen, small intestine together with the fecal content (SIWC), heart, and subcutaneous inguinal white adipose tissue were collected and weighed. For the 2 h experiment, the gallbladder with content was also (separately) collected in an Eppendorf tube and weighed. Plasma was obtained from blood samples by centrifugation at 9,000 g for 6 min at 4 °C. Tissue homogenates (except gallbladder) were obtained using the Fast Prep-24 5G homogenizer (MP Biomedicals Inc., Santa Ana, CA, United States). Before homogenization, Bovine Serum Albumin (BSA, Fraction V) was dissolved at a concentration of 2% (w/v) in distilled water. Three mL of ice-cold 2% BSA were added to liver and SIWC; 2 ml to kidneys; 1 ml to brain, spleen, and heart; and 2–3 ml to the white adipose tissue (depending on the tissue weight). For the gallbladder, 150 μL of 2% BSA was added; then, the samples were centrifuged (9,000 x g, 4°C, 6 min), and only the supernatant was collected for analysis. Both plasma and tissue samples were kept at −70°C in amber-colored Eppendorf tubes until analysis.
A volume of 50 µL human plasma sample, a 5-fold diluted mouse plasma sample (10 uL + 40 uL control human plasma), or 100 µL homogenized tissue sample were processed. […] To the 50 uL plasma samples, 20 uL of a working solution containing both internal standards at a concentration of 10 ng/ml in methanol (WIS10) was added. Sample pre-treatment involved protein precipitation with 150 uL of acetonitrile-methanol (1:1, v/v). For the tissue homogenates (100 uL sample aliquots), 40 uL of WIS10 was added, and 300 uL precipitation reagent as sample cleanup. After centrifuging the samples (10 min, 4°C, 15,000 x g), 100 µL of the supernatant was transferred to an amber-colored autosampler vial with insert. […]
Pharmacokinetic parameters were calculated by non-compartmental methods using the Microsoft Excel menu-driven add-in program PKsolver ([Zhang et al., 2010]). The area under the plasma concentration-time curve (AUC) was calculated with the trapezoidal rule without extrapolating to infinity. […]

[2] = Plasma pharmacokinetics over 2 h after oral ibogaine in wild-type, Abcg2-/- and Abcb1a/1b;Abcg2-/- mice; format: in vivo; details: for Fold increase AUC0-2h: oral 10 mg/kg ibogaine; for Tmax / Cmax / AUC(0-t): mouse, plasma, po, 10 mg/kg; for AUC(0-t): read-out: AUC0-2h
Experimental: as §1
(§2) A volume of 50 µL human plasma sample, a 5-fold diluted mouse plasma sample (10 uL + 40 uL control human plasma), or 100 µL homogenized tissue sample were processed. […] To the 50 uL plasma samples, 20 uL of a working solution containing both internal standards at a concentration of 10 ng/ml in methanol (WIS10) was added. Sample pre-treatment involved protein precipitation with 150 uL of acetonitrile-methanol (1:1, v/v). For the tissue homogenates (100 uL sample aliquots), 40 uL of WIS10 was added, and 300 uL precipitation reagent as sample cleanup. After centrifuging the samples (10 min, 4°C, 15,000 x g), 100 µL of the supernatant was transferred to an amber-colored autosampler vial with insert. Then 100 µL of 4 mM ammonium formate pH 3.5 in water was added, and after vortex mixing, the extracts were injected (5 uL) onto a UPLC system (Acquity UPLC I-Class IVD system, Waters, Milford, MA, United States) equipped with an Acquity UPLC HSS T3 Column (150 × 2.1 mm ID, 1.8 µm). The tray temperature was set to 5 ± 3°C, and the analytical column was kept at 50°C. Gradient elution was applied using 4 mM ammonium formate pH 3.5 in water as eluent A and acetonitrile as eluent B. The flow rate was 500 μL/min, and the total runtime was 6 min. Detection was performed in the positive ion mode on a Quadrupole MS/MS detector with a Turbo Ion Spray Interface (QTRAP5500, Sciex, Framingham, MA, United States). The ionspray voltage was 2250 V, and the spray temperature was 700 °C. Gas settings, potentials, and collision energies were optimized by infusion of the analytes and by flow injection analysis.
(§3) Pharmacokinetic parameters were calculated by non-compartmental methods using the Microsoft Excel menu-driven add-in program PKsolver ([Zhang et al., 2010]). The area under the plasma concentration-time curve (AUC) was calculated with the trapezoidal rule without extrapolating to infinity. The peak plasma concentration (Cmax) and the time to reach Cmax (Tmax) were estimated from the original data. […] GraphPad Prism 9 (GraphPad Software Inc., San Diego, CA, United States) was used to plot the data and to perform statistical analysis. To determine whether the most extreme value in a data set was a significant outlier from the rest, the Grubbs’s (or extreme studentized variate) test was applied (α = 0.05). All data were log-transformed before statistical analysis. […]

[3] = Plasma pharmacokinetics over 8 h after oral ibogaine in wild-type, Cyp3a-/- and Cyp3aXAV mice; format: in vivo; details: female, mouse, 10 mg/kg; for AUC(0-t): read-out: AUC0-8h
Experimental: as §1, §2, §3

[4] = Plasma pharmacokinetics over 2 h after oral ibogaine in wild-type, Oatp1a/1b-/-, Oatp1a/1b-/-;1B1tg and Oatp1a/1b-/-;1B3tg mice; format: in vivo; details: for Fold increase AUC0-2h: oral 10 mg/kg ibogaine; for Cmax / Tmax / AUC(0-t): female, mouse, plasma, po, 10 mg/kg; for AUC(0-t): read-out: AUC0-2h
Experimental: as §1, §2, §3

[5] = Tissue distribution 2 h after oral ibogaine in wild-type, Abcg2-/- and Abcb1a/1b;Abcg2-/- mice; format: in vivo; details: for fold decrease in total amount (% of dose) in SIWC corrected for plasma AUC over 2 h: small intestine with fecal content, oral 10 mg/kg ibogaine; for Kp at 2 h: mouse, po, 10 mg/kg
Experimental: as §1, §2, §3

[6] = design: method as in Luz and Mash, 2021; details: ref Luz and Mash, 2021; cited from earlier work
[7] = design: method as in Mačiulaitis et al., 2008; details: in 24 h in rats; ref Mačiulaitis et al., 2008; cited from earlier work
human ABCG2 = tested on: human ABCG2; design: method as in Tournier et al. (2010); details: hABCG2-transfected HEK293 cells, flow cytometric assay; ref Tournier et al. (2010); cited from earlier work
human ABCB1 = tested on: human ABCB1; design: method as in Tournier et al. (2010); details: hABCB1-transfected HEK293 cells, flow cytometric assay; ref Tournier et al. (2010); cited from earlier work
[8] = Abcb1a/1b;Abcg2-/- mice vs wild-type
[9] = Oatp1a/1b-/-;1B1tg mice vs wild-type
[10] = Oatp1a/1b-/-;1B3tg mice vs wild-type
[11] = wild-type, inguinal white adipose tissue, read-out: adipose tissue-to-plasma distribution ratio

## CCC1CC2CC3c4[nH]c5ccc(OC6OC(C(=O)O)C(O)C(O)C6O)cc5c4CCN(C2)C13 (centres unmarked) [Noribogaine glucuronide, noribogaine glucuronide]
[1]; WT mice, 2 h after oral 10 mg/kg ibogaine
  gallbladder-to-plasma ratio, fold higher than liver-to-plasma ratio: about 10 fold
[2]; [8]
  Fold increase AUC0-2h: 1.5
[2]; Abcb1a/1b;Abcg2-/-
  Tmax: 2 h
[2]; Abcg2-/- mice vs wild-type
  Fold increase AUC0-2h: 1.1
[2]; Abcg2-/-
  Tmax: 2 h
[2]; female, Abcb1a/1b;Abcg2-/-
  Cmax: 156 ± 31 ng/mL
  AUC(0-t): 240 ± 46 ng·h/mL
[2]; female, Abcg2-/-
  Cmax: 122 ± 27 ng/mL
  AUC(0-t): 184 ± 32 ng·h/mL
[2]; female, wild-type
  Cmax: 125 ± 30 ng/mL
  Tmax: 2 h
  AUC(0-t): 164 ± 12 ng·h/mL
[2]; wild-type mice (reference)
  Fold increase AUC0-2h: 1.0
[3]; Cyp3a-/-
  Cmax: 114 ± 24 ng/mL
  Tmax: 1 h
  AUC(0-t): 422 ± 110 ng·h/mL
[3]; Cyp3aXAV
  Cmax: 123 ± 28 ng/mL
  Tmax: 1 h
  AUC(0-t): 536 ± 117 ng·h/mL
[3]; wild-type
  Cmax: 70 ± 13.6 ng/mL
  Tmax: 1 h
  AUC(0-t): 219 ± 50 ng·h/mL
[4]; Oatp1a/1b-/- mice vs wild-type
  Fold increase AUC0-2h: 1.5
[4]; [9]
  Fold increase AUC0-2h: 1.8
[4]; [10]
  Fold increase AUC0-2h: 1.4
[4]; Oatp1a/1b-/-
  Cmax: 155 ± 20 ng/mL
  Tmax: 2 h
  AUC(0-t): 244 ± 30 ng·h/mL
[4]; Oatp1a/1b-/-;1B1tg
  Cmax: 199 ± 59 ng/mL
  Tmax: 1 h
  AUC(0-t): 294 ± 65 ng·h/mL
[4]; Oatp1a/1b-/-;1B3tg
  Cmax: 162 ± 25 ng/mL
  Tmax: 1 h
  AUC(0-t): 236 ± 24 ng·h/mL
[4]; wild-type
  Cmax: 125 ± 30 ng/mL
  Tmax: 2 h
  AUC(0-t): 164 ± 12 ng·h/mL
[4]; wild-type mice (reference)
  Fold increase AUC0-2h: 1.0
[5]; Abcb1a/1b;Abcg2-/- mice compared to WT, 2 h after oral 10 mg/kg ibogaine
  fold decrease in liver-to-plasma ratio: 1.7 fold
[5]; Abcb1a/1b;Abcg2-/- mice compared to WT
  fold decrease in total amount (% of dose) in SIWC corrected for plasma AUC over 2 h: 2.1 fold
[5]; Abcb1a/1b;Abcg2-/- vs WT mice, not statistically significant, 2 h after oral 10 mg/kg ibogaine
  gallbladder-to-plasma ratio, fold lower than in WT: more than 2 fold
[5]; Abcg2-/- mice compared to WT
  fold decrease in total amount (% of dose) in SIWC corrected for plasma AUC over 2 h: 1.5 fold
[5]; [11]
  Kp at 2 h: 0.058

## CCC1CC2CC3c4[nH]c5ccc(O)cc5c4CCN(C2)C13 (centres unmarked) [Noribogaine, 12-hydroxyibogamine]
[1]; Oatp1a/1b-/- mice compared to WT
  fold reduction in liver accumulation: 1.6 fold
[1]; Oatp1a/1b-/-;1B1tg mice compared to WT
  fold reduction in liver accumulation: 1.8 fold
[1]; Oatp1a/1b-/-;1B3tg mice compared to WT
  fold reduction in liver accumulation: 2.1 fold
[2]; [8]
  Fold increase AUC0-2h: 1.2
[2]; Abcb1a/1b;Abcg2-/-
  Tmax: 0.25 h
[2]; Abcg2-/- mice vs wild-type
  Fold increase AUC0-2h: 1.1
[2]; Abcg2-/-
  Tmax: 0.25 h
[2]; female, Abcb1a/1b;Abcg2-/-
  Cmax: 276 ± 98 ng/mL
  AUC(0-t): 419 ± 126 ng·h/mL
[2]; female, Abcg2-/-
  Cmax: 233 ± 61 ng/mL
  AUC(0-t): 381 ± 108 ng·h/mL
[2]; female, wild-type
  Cmax: 208 ± 70 ng/mL
  Tmax: 0.5 h
  AUC(0-t): 339 ± 107 ng·h/mL
[2]; wild-type mice (reference)
  Fold increase AUC0-2h: 1.0
[3]; Cyp3a-/-
  Cmax: 280 ± 75 ng/mL
  Tmax: 0.5 h
  AUC(0-t): 1070 ± 320 ng·h/mL
[3]; Cyp3aXAV
  Cmax: 328 ± 75 ng/mL
  Tmax: 0.5 h
  AUC(0-t): 1400 ± 320 ng·h/mL
[3]; wild-type
  Cmax: 217 ± 37 ng/mL
  Tmax: 0.5 h
  AUC(0-t): 655 ± 220 ng·h/mL
[6]
  half-life in plasma: 24 to 30 h
[4]; Oatp1a/1b-/- mice vs wild-type
  Fold increase AUC0-2h: 1.4
[4]; [9]
  Fold increase AUC0-2h: 1.7
[4]; [10]
  Fold increase AUC0-2h: 1.5
[4]; Oatp1a/1b-/-
  Cmax: 290 ± 73 ng/mL
  Tmax: 0.5 h
  AUC(0-t): 458 ± 110 ng·h/mL
[4]; Oatp1a/1b-/-;1B1tg
  Cmax: 417 ± 95 ng/mL
  Tmax: 0.25 h
  AUC(0-t): 578 ± 86 ng·h/mL
[4]; Oatp1a/1b-/-;1B3tg
  Cmax: 411 ± 107 ng/mL
  Tmax: 0.25 h
  AUC(0-t): 519 ± 100 ng·h/mL
[4]; wild-type
  Cmax: 209 ± 70 ng/mL
  Tmax: 0.5 h
  AUC(0-t): 339 ± 107 ng·h/mL
[4]; wild-type mice (reference)
  Fold increase AUC0-2h: 1.0
[5]; Abcb1a/1b;Abcg2-/-, brain, read-out: brain-to-plasma ratio
  Kp at 2 h: 8.3
[5]; WT, Abcg2-/- and Abcb1a/1b;Abcg2-/- mice, 2 h after oral 10 mg/kg ibogaine
  liver-to-plasma ratios, times higher than gallbladder-to-plasma ratios: at least 3 times
[5]; wild-type mice, both at 2 and 8 h after oral 10 mg/kg ibogaine
  absolute brain concentrations, fold higher than those of ibogaine: ≥ 100 fold
[5]; wild-type, brain, read-out: brain-to-plasma ratio
  Kp at 2 h: 7.2
[5]; [11]
  Kp at 2 h: 2.8
[7]
  excreted via urine and feces, % of the administered dose: 60–70%

## ibogaine
Human ABCG2
  inhibition of human ABCG2: significantly inhibited in a concentration-dependent manner
Human ABCB1
  inhibition of human ABCB1: significantly inhibited in a concentration-dependent manner
